What was measured:
[1] = tested on: CD69 in human whole blood; test: Induction of CD69 in human whole blood (hWB); format: cell-based; settings: heparinized human whole blood, 17 h, CD69 surface staining; 100% set to 1 uM resiquimod; average where assay repeated
Method: The induction of Type I interferon (IFN) MX-1 genes and the B-cell activation marker CD69 are downstream events that occur upon activation of the TLR7 pathway. The following is a human whole blood assay that measures their induction in response to a TLR7 agonist.
Heparinized human whole blood was harvested from human subjects and treated with test TLR7 agonist compounds at 1 mM. The blood was diluted with RPMI 1640 media and Echo was used to predot 10 nL per well giving a final concentration of 1 uM (10 nL in 10 uL of blood). After mixing on a shaker for 30 sec, the plates were covered and placed in a 37° C. chamber for o/n=17 hrs. Fixing/lysis buffer was prepared (5×->1×in H2O, warm at 37° C.; Cat# BD 558049) and kept the perm buffer (on ice) for later use.
For surface markers staining (CD69): prepared surface Abs: 0.045 ul hCD14-FITC (ThermoFisher Cat # MHCD1401)+0.6 ul hCD19-ef450 (ThermoFisher Cat #48-0198-42)+1.5 ul hCD69-PE (cat# BD555531)+0.855 ul FACS buffer. Added 3 ul/well, spin1000 rpm for 1 min and mixed on shaker for 30 sec, put on ice for 30 mins. Stop stimulation after 30 minutes with 70 uL of prewarmed 1×fix/lysis buffer and use Feliex mate to resuspend (15 times, change tips for each plate) and incubate at 37° C. for 10 minutes.
Centrifuge at 2000 rpm for 5 minutes aspirate with HCS plate washer, mix on shaker for 30 sec and then wash with 70 uL in dPBS and pelleted 2 xs (2000 rpm for 5 min) and 50 ul wash in FACS buffer pelleted 1 xs(2000 rpm for 5 min). Mix on shaker for 30 sec. For Intracellular markers staining (MX-1): Add 50 ul of BD Perm buffer III and mix on shaker for 30 sec. Incubate on ice for 30 minutes (in the dark). Wash with 50 uL of FACS buffer 2×(spin @2300 rpm×5 min after perm) followed by mixing on shaker for 30 sec. Resuspended in 20 ul of FACS buffer containing MX1 antibody ( )(4812)-Alexa 647: Novus Biologicals #NBP2-43704AF647) 20 ul FACS bf+0.8 ul hlgG+0.04 ul MX-1. Spin 1000 rpm for 1 min, mix on shaker for 30 se and the samples were incubated at RT in the dark for 45 minutes followed by washing 2×FACS buffer (spin @2300 rpm×5 min after perm). Resuspend 20 ul (35 uL total per well) of FACS buffer and cover with foil and place in 4° C. to read the following day. Plates were read on iQuePlus. The results were loaded into toolset and […] curves are generated in curve master. The y-axis 100% is set to 1 uM of resiquimod.

human TLR7 = biological target: T1, human TLR7 (Homo sapiens, UniProt Q9NYK1); test: Human TLR7 agonist activity (hTLR7 reporter) assay in HEK-Blue TLR7 cells, SEAP readout; format: cell-based; settings: 18 h treatment, average where assay repeated
T1 construct: host or cells: HEK-Blue TLR7 cells (engineered human embryonic kidney cells)
T1 sequence (Q9NYK1 27-1049): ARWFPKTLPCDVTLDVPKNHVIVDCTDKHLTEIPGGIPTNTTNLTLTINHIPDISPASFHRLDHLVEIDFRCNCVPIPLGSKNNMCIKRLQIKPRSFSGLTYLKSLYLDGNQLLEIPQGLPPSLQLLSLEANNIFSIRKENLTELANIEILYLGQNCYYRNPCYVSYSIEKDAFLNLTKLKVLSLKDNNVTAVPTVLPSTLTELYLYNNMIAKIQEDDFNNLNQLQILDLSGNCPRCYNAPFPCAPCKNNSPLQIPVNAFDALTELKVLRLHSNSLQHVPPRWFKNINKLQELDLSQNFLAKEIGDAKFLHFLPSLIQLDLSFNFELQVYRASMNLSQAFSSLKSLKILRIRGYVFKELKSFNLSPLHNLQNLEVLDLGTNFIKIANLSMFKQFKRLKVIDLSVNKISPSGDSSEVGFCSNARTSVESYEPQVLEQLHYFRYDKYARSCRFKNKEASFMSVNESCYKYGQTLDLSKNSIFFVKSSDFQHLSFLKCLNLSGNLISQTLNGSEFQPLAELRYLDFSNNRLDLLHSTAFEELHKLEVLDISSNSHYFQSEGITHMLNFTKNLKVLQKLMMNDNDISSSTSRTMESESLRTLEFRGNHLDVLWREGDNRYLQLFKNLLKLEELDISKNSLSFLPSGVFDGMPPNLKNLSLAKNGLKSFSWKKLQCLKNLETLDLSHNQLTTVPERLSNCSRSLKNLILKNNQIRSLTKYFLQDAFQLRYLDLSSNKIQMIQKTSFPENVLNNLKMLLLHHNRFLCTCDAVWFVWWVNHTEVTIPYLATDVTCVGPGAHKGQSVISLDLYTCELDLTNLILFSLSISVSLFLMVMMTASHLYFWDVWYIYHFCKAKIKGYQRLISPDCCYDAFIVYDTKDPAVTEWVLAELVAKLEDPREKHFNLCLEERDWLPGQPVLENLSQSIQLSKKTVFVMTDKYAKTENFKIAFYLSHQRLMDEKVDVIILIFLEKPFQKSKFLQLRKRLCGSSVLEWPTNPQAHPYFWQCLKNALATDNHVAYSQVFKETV
Method: This procedure describes a method for assaying human TLR7 (hTLR7) agonist activity of the compounds disclosed in this specification.
HEK-Blue™ TLR7 cells were added to each well of a 384-well tissue-culture plate (15,000 cells per well) and incubated 16-18 h at 37° C., 5% CO2. Compounds (100 nl) were dispensed into wells containing the HEK-Blue™ TLR cells and the treated cells were incubated at 37° C., 5% CO2. After 18 h treatment ten microliters of freshly-prepared Quanti-Blue™ reagent (Invivogen) was added to each well, incubated for 30 min (37° C., 5% CO2) and SEAP levels measured using an Envision plate reader (OD=620 nm). The half maximal effective concentration values (EC50; compound concentration which induced a response halfway between the assay baseline and maximum) were calculated.

EC50 [1]	EC50 (human TLR7)	SMILES
101 nM	104 nM	COc1cc(C(=O)NC2CCN(C(C)C)CC2)ccc1Cn1ncc2nc(N)nc(NCC3CC4(CC4)C3)c21 [Compound 194]
284 nM	199 nM	COc1cc(C(=O)N2CCN(S(C)(=O)=O)CC2)ccc1Cn1ncc2nc(N)nc(NCC3CC4(CC4)C3)c21 [Compound 236]
268 nM	705 nM	COc1cc(C(=O)NCCN(C)C)ccc1Cn1ncc2nc(N)nc(NCC3CC4(C3)CC4(F)F)c21 (stereo not shown) [Compound 163]
78.2 nM	916 nM	COc1cc(CN2CC3(C2)CN(C(C)=O)C3)ccc1Cn1ncc2nc(N)nc(NCc3noc(C)n3)c21 [Compound 264]
9.3 nM	141 nM	CCCCNc1nc(N)nc2cnn(Cc3ccc(CN4CCC5(CCNCC5)CC4)cc3OC)c12 [Compound 266]
117 nM	261 nM	COc1cc(CO)ccc1Cn1ncc2nc(N)nc(NCC3CC4(CC4)C3)c21 [Compound 166, (4-((5-amino-7-((spiro[2.3]hexan-5-ylmethyl)amino)-1H-pyrazolo[4,3-d]pyrimidin-1-yl)methyl)-3-methoxyphenyl)methanol]
1.1 nM	45.3 nM	CCC[C@@H](CCO)Nc1nc(N)nc2cnn(Cc3ncc(C4CC5(C4)CN(C4CCOCC4)C5)cc3OC)c12 [Compound 250]
32.9 nM	37.1 nM	CCC[C@@H](CCO)Nc1nc(N)nc2cnn(Cc3ccc(C(=O)N4CC5(C4)CN(C(C)C)C5)cc3OC)c12 [Compound 232]
206 nM	842 nM	COc1cc(C(=O)NC2CC3(C2)CN(C)C3)ccc1Cn1ncc2nc(N)nc(NCC3CC4(CC4)C3)c21 (stereo not shown) [Compound 201]
35.2 nM	86 nM	COc1cc(C(=O)NC2CCN(CC(C)(C)O)CC2)ccc1Cn1ncc2nc(N)nc(NCC3CC4(CC4)C3)c21 [Compound 238]
104 nM	372 nM	CCC[C@@H](CCO)Nc1nc(N)nc2cnn(Cc3ccc(CN4CC5(CN(C)C5)C4)cc3OC)c12 [Compound 215]
1.3 nM	14.5 nM	CCC[C@@H](CCO)Nc1nc(N)nc2cnn(Cc3ccc(CN4CC5(C4)CN(CC4CC4)C5)cc3OC)c12 [Compound 253]
0.5 nM	4.6 nM	CCC[C@@H](CCO)Nc1nc(N)nc2cnn(Cc3ccc(CN4CC5(CCOCC5)C4)cc3OC)c12 [Compound 113]
4.5 nM	28 nM	COc1cc(CN2C[C@H]3CNC[C@H]3C2)ccc1Cn1ncc2nc(N)nc(NCC3CC4(CC4)C3)c21 [Compound 169]
3.7 nM	69.9 nM	CCC[C@@H](CCO)Nc1nc(N)nc2c(C)nn(Cc3ccc(CNC4CC5(C4)CN(C)C5)cc3OC)c12 [Compound 269]
8 nM	120 nM	CCCCNc1nc(N)nc2cnn(Cc3ccc(CN4CC5(CCN(CCO)C5)C4)cc3OC)c12 [Compound 261]
218 nM	1220 nM	COc1cc(C(=O)NC2CCN(CCO)CC2)ccc1Cn1ncc2nc(N)nc(NCC3CC4(CC4)C3)c21 [Compound 225]
420 nM	2310 nM	COc1cc(C(=O)N2CC3(CN(C)C3)C2)ccc1Cn1ncc2nc(N)nc(NCC3CC4(C3)CC(F)(F)C4)c21 [Compound 187]

EC50 [1]	EC50 (human TLR7)	SMILES
3.6 nM	10.8 nM	COc1cc(C(=O)N2C[C@H]3CN(C)C[C@H]3C2)ccc1Cn1ncc2nc(N)nc(NCC3CC4(CC4)C3)c21 [Compound 176]
31 nM	42 nM	COc1cc(C(=O)N2CC3(CN(C)C3)C2)ccc1Cn1ncc2nc(N)nc(NCC3CC4(C3)CC4(F)F)c21 (stereo not shown) [Compound 149]
24.9 nM	11.6 nM	CCC[C@@H](CCO)Nc1nc(N)nc2cnn(Cc3ccc(CN4CC5(C4)CN(C(=O)C4CCC4)C5)cc3OC)c12 [Compound 106]
117 nM	1240 nM	CN1CCC(NC(=O)c2ccc(Cn3ncc4nc(N)nc(NCC5CC6(CC6)C5)c43)c(OC(F)F)c2)CC1 [Compound 220]
32.4 nM	166 nM	COc1cc(C(=O)NCCCN(C)C)ccc1Cn1ncc2nc(N)nc(NCC3CC4(CC4)C3)c21 [Compound 231]
152 nM	167 nM	COc1cc(CN2CC3(CNC3)C2)ccc1Cn1ncc2nc(N)nc(NCC3CC(C4CC4)C3)c21 (stereo not shown) [Compound 152]
197 nM	276 nM	COc1cc(C(=O)NC2CCN(CC(=O)N(C)C)CC2)ccc1Cn1ncc2nc(N)nc(NCC3CC4(CC4)C3)c21 [Compound 230]
520 nM	1400 nM	Nc1nc(NCC2CC3(CC3)C2)c2c(cnn2Cc2ccc(C(=O)C3C[C@H]4CNC[C@H]4N3)cc2OC(F)F)n1 (stereo partly shown) [Compound 224]
4.5 nM	32.4 nM	CCC[C@@H](CCO)Nc1nc(N)nc2cnn(Cc3ccc(CN4CC5(C4)CN(C(C)=O)C5)cc3OC)c12 [Compound 101]
1.6 nM	55.6 nM	CCC[C@@H](CCO)Nc1nc(N)nc2cnn(Cc3ccc(CN4CC5(CN(CC)C5)C4)cc3OC)c12 [Compound 249]
413 nM	214 nM	COc1cc(CN2CC3(CCO3)C2)ccc1Cn1ncc2nc(N)nc(NCC3CC4(C3)CC4F)c21 (stereo not shown) [Compound 127]
35.5 nM	32.6 nM	CCCN1CCC(NC(=O)c2ccc(Cn3ncc4nc(N)nc(NCC5CC6(CC6)C5)c43)c(OC)c2)CC1 [Compound 197]
359 nM	579 nM	COc1cc(C(=O)N[C@H]2C[C@H](O)C2)ccc1Cn1ncc2nc(N)nc(NCC3CC4(CC4)C3)c21 [Compound 177]
493 nM	810 nM	COc1cc(C(=O)N2C[C@H]3CN(C)C[C@H]3C2)ccc1Cn1ncc2nc(N)nc(NCC3CC4(C3)CC(F)(F)C4)c21 [Compound 188]
1.1 nM	82.3 nM	CCC[C@@H](CCO)Nc1nc(N)nc2cnn(Cc3ncc(C4=CC5(CCN(C(C)C)CC5)C4)cc3OC)c12 [Compound 274]
156 nM	365 nM	COc1cc(C(=O)N2C[C@@H]3C[C@H]2CN3)ccc1Cn1ncc2nc(N)nc(NCC3CC4(CC4)C3)c21 [Compound 178]
33.7 nM	640 nM	COc1cc(CN2CC3(CN(C)C3)C2)ccc1Cn1ncc2nc(N)nc(NCc3cc(C)on3)c21 [Compound 211]

From US20230122249A1, “1H-PYRAZOLO[4,3-d]PYRIMIDINE COMPOUNDS AS TOLL-LIKE RECEPTOR 7 (TLR7) AGONISTS” (BRISTOL-MYERS SQUIBB COMPANY, priority 2020, published 2023)
